For 25 molecules, IC50 results are on record in US10703757B2, “Compounds and methods for CDK8 modulation and indications therefor” (Plexxikon Inc., priority 2016, dated 2020).

The test concerns CDK8 (phosphorylation of STAT1 at serine 727 in A549 cells). Description: Cell based Phospho-STAT1 assay (IFNγ-stimulated A549 cells, AlphaLISA). The following applies: Homo sapiens, A549, A549 cells, phospho-STAT1 after IFNγ stimulation. The procedure:
Determine Inhibitor Activity Against CDK8 in Cell Based Phospho-STAT1 Assay
This assay measures the phosphorylation of the CDK8 substrate STAT1 following Interferon-gamma (IFNγ) stimulation^1. The lung carcinoma cell line A549 is seeded in a 96 well plate in 50 μL of culture media at 5×10^4 cells/well and incubated at 37° C. overnight. Serial dilutions of compounds (in total volume of 50 μL culture media) are added to the cells and incubated at 37° C. for one hour. Human IFNγ (R&D Systems) is added to the cells at a 10 ng/mL final concentration. 4 wells containing DMSO treated cells stimulated with IFNγ serve as high controls and 4 wells containing DMSO treated unstimulated cells serve as low controls. After 30 minute IFNγ stimulation at 37° C., the culture media is removed and 50 μL of 1×AlphaLISA lysis buffer (PerkinElmer GA, USA) is added to each well. 5 μL cell lysate is transferred to a 384 well AlphaPlate (PerkinElmer GA, USA) and 5 μL containing 0.156 nM Phospho-STAT1 (Ser727) rabbit monoclonal antibody (Cell Signaling Technology), 0.156 nM Mouse Anti-STAT1 antibody (BD Transduction Laboratories), and 10 μg/mL Anti-rabbit IgG AlphaLISA acceptor beads (PerkinElmer GA, USA) diluted in 1× AlphaLISA immunoassay buffer (PerkinElmer GA, USA) is added to the cell lysates and incubated at room temperature for 90 minutes. 5 μL Anti-Mouse IgG Alpha donor beads diluted in 1× AlphaLISA immunoassay buffer (PerkinElmer GA, USA) is added to the reaction mixture and incubated at room temperature for 90 minutes. Upon excitation of these beads with laser light at 680 nm, singlet oxygen is produced. This singlet oxygen is rapidly quenched, unless the AlphaLISA Anti-Rabbit IgG acceptor beads are in close proximity, in which case a proximity signal can be measured at […]. In the presence of cellular CDK8 catalytic activity, there is a very strong proximity signal. Selective CDK8 inhibitors affect a decrease in this proximity signal through a decrease in phosphorylation of STAT1 at serine 727. The percentage inhibition at individual concentrations relative to high and low controls is calculated. The data are analyzed by using nonlinear regression to generate IC50 values.
Molecule `Cn1cc(-c2ccc(-c3cnc4cccc(N5CCC(C#N)(c6ccccc6)CC5)n34)cc2)cn1` [Compound P-0451, 1-(3-(4-(1-methyl-1H-pyrazol-4-yl)phenyl)imidazo[1,2-a]pyridin-5-yl)-4-phenylpiperidine-4-carbonitrile] displayed a 50% inhibitory concentration (IC50) of 0.1 to 100 nM.
The value for `COC(=O)C1(C)CCN(c2cccc3ncc(-c4ccc(-c5cnn(C)c5)cc4)n23)CC1` [Compound P-0399, methyl 4-methyl-1-(3-(4-(1-methyl-1H-pyrazol-4-yl)phenyl)imidazo[1,2-a]pyridin-5-yl)piperidine-4-carboxylate] was 1000 to 10000 nM; that for `Cn1cncc1C#Cc1cnc2cccc(N3CCC4(CC3)C(=O)Nc3ccccc34)n12` [Compound P-0376, 1′-[3-[2-(3-methylimidazol-4-yl)ethynyl]imidazo[1,2-a]pyridin-5-yl]spiro[indoline-3,4′-piperidine]-2-one] was 100 to 1000 nM.
The value for `COC(=O)CC1CCN(c2cccc3ncc(C#Cc4cnn(C)c4)n23)CC1` [Compound P-0312, methyl 2-(1-(3-((1-methyl-1H-pyrazol-4-yl)ethynyl)imidazo[1,2-a]pyridin-5-yl)piperidin-4-yl)acetate] was 1000 to 10000 nM; that for `NC(=O)N1CCC(Oc2cccc3ncc(-c4ccc(-c5cnn(C(F)F)c5)cc4)n23)CC1` [Compound P-0299, 4-((3-(4-(1-(difluoromethyl)-1H-pyrazol-4-yl)phenyl)imidazo[1,2-a]pyridin-5-yl)oxy)piperidine-1-carboxamide] was 1000 to 10000 nM.
`O=C1Nc2ccccc2C12CCN(c1cccc3ncc(-c4ccc(-c5cnn(C(F)F)c5)cc4)n13)CC2` [Compound P-0441, 1′-(3-(4-(1-(difluoromethyl)-1H-pyrazol-4-yl)phenyl)imidazo[1,2-a]pyridin-5-yl)spiro[indoline-3,4′-piperidin]-2-one] showed an IC50 of 0.1 to 100 nM.
Regarding `Cn1ncc2cc(-c3cnc4[nH]ccc4c3NCC(C)(C)C#N)ccc21` [Compound P-0336, 2,2-dimethyl-3-((5-(1-methyl-1H-indazol-5-yl)-1H-pyrrolo[2,3-b]pyridin-4-yl)amino)propanenitrile], the IC50 lay in the range of 100 to 1000 nM.
The value for `Cn1cc(-c2ccc(-c3cnc4ccc(C#N)c(N5CCC(C#N)CC5)n34)cc2)cn1` [Compound P-0339, 5-(4-cyanopiperidin-1-yl)-3-(4-(1-methyl-1H-pyrazol-4-yl)phenyl)imidazo[1,2-a]pyridine-6-carbonitrile] was 100 to 1000 nM; that for `Cn1ncc2cc(-c3cnc4[nH]ccc4c3N3CCC(C#N)CC3)ccc21` [Compound P-0357, 1-[5-(1-methylindazol-5-yl)-1H-pyrrolo[2,3-b]pyridin-4-yl]piperidine-4-carbonitrile] was 0.1 to 100 nM; that for `Cn1cc(-c2ccc(-c3cnc4cccc(NCCCO)n34)cc2)cn1` [Compound P-0390, 3-((3-(4-(1-methyl-1H-pyrazol-4-yl)phenyl)imidazo[1,2-a]pyridin-5-yl)amino)propan-1-ol] was 100 to 1000 nM.
The value for `Cn1ncc2cc(-c3cnn4cccc(C#CC(C)(C)O)c34)ccc21` [Compound P-0414, 2-methyl-4-(3-(1-methyl-1H-indazol-5-yl)pyrazolo(1,5-a]pyridin-4-yl)but-3-yn-2-ol] was 0.1 to 100 nM; that for `Cn1cc(Nc2ncc(-c3cnc4cccc(N5CCC6(CC5)C(=O)Nc5ccccc56)n34)cn2)cn1` [Compound P-0453, 1′-(3-(2-((1-methyl-1H-pyrazol-4-yl)amino)pyrimidin-5-yl)imidazo[1,2-a]pyridin-5-yl)spiro[indoline-3,4′-piperidin]-2-one] was 100 to 1000 nM; that for `N#CC1CCN(c2cccc3ncc(-c4ccc(-c5cnn(C(F)F)c5)cc4)n23)CC1` [Compound P-0440, 1-(3-(4-(1-(difluoromethyl)-1H-pyrazol-4-yl)phenyl)imidazo[1,2-a]pyridin-5-yl)piperidine-4-carbonitrile] was 0.1 to 100 nM.
The figure for `CCC(O)(C#Cc1cccn2ncc(-c3ccc(-c4cnn(C)c4)cc3)c12)CC` [Compound P-0373, 3-ethyl-1-(3-(4-(1-methyl-1H-pyrazol-4-yl)phenyl)pyrazolo[1,5-a]pyridin-4-yl)pent-1-yn-3-ol] is 100 to 1000 nM.
The molecule `Cn1cc(-c2ccc(-c3cnn4cccc(C5=CCSCC5)c34)cc2)cn1` [Compound P-0301, 4-(3,6-dihydro-2H-thiopyran-4-yl)-3-(4-(1-methyl-1H-pyrazol-4-yl)phenyl)pyrazolo[1,5-a]pyridine] displayed an IC50 of 100 to 1000 nM.
The value for `COc1ncc(-c2cnn3cccc(C#CC(C)(C)O)c23)cn1` [Compound P-0288, 4-(3-(2-methoxypyrimidin-5-yl)pyrazolo[1,5-a]pyridin-4-yl)-2-methylbut-3-yn-2-ol] was 100 to 1000 nM; that for `Cn1cc(-c2ccc(-c3cnc4cccc(C#CC(C)(C)O)n34)cc2)cn1` [Compound P-0375, 2-methyl-4-(3-(4-(1-methyl-1H-pyrazol-4-yl)phenyl)imidazo[1,2-a]pyridin-5-yl)but-3-yn-2-ol] was 0.1 to 100 nM; that for `CCOC(=O)C1CC=C(c2cccc3ncc(-c4ccc(-c5cnn(C)c5)cc4)n23)CC1` (stereo not shown) [Compound P-0420, ethyl 4-(3-(4-(1-methyl-1H-pyrazol-4-yl)phenyl)imidazo[1,2-a]pyridin-5-yl)cyclohex-3-ene-1-carboxylate] was 1000 to 10000 nM.
In the case of `Cn1cc(-c2ccc(-c3cnc4cccc(N5CCCCC5)n34)cc2)cn1` [Compound P-0381, 3-(4-(1-methyl-1H-pyrazol-4-yl)phenyl)-5-(piperidin-1-yl)imidazo[1,2-a]pyridine], the IC50 was in the range of 1000 to 10000 nM.
The value for `CC(C)(O)C#Cc1cccn2ncc(-c3ccc(NS(=O)(=O)C4CC4)cc3)c12` [Compound P-0412, N-(4-(4-(3-hydroxy-3-methylbut-1-yn-1-yl)pyrazolo[1,5-a]pyridin-3-yl)phenyl)cyclopropane-sulfonamide] was 100 to 1000 nM; that for `N#CC1CCC(c2cccn3ncc(-c4ccc(-c5cnn(C(F)F)c5)cc4)c23)CC1` (stereo not shown) [Compound P-0346, 4-(3-(4-(1-(difluoromethyl)-1H-pyrazol-4-yl)phenyl)pyrazolo[1,5-a]pyridin-4-yl)cyclohexane-1-carbonitrile] was 100 to 1000 nM.
The figure for `CC(C)(O)C#Cc1cccn2ncc(-c3ccc(OCCN4CCCCC4)cc3)c12` [Compound P-0406, 2-methyl-4-(3-(4-(2-(piperidin-1-yl)ethoxy)phenyl)pyrazolo[1,5-a]pyridin-4-yl)but-3-yn-2-ol] is 100 to 1000 nM.
The value for `N#CC1CCN(c2c(-c3ccc4c(c3)OC(F)(F)O4)cnc3[nH]ccc23)CC1` [Compound P-0334, 1-(5-(2,2-difluorobenzo[d][1,3]dioxol-5-yl)-1H-pyrrolo[2,3-b]pyridin-4-yl)piperidine-4-carbonitrile] was 100 to 1000 nM.
Turning to `CCOC(=O)C1CCN(c2cccc3ncc(-c4ccc(-c5cnn(C)c5)cc4)n23)CC1` [Compound P-0447, ethyl 1-(3-(4-(1-methyl-1H-pyrazol-4-yl)phenyl)imidazo[1,2-a]pyridin-5-yl)piperidine-4-carboxylate], the IC50 lay in the range of 0.1 to 100 nM.
Turning to `Cn1cc(C#Cc2cccn3ncc(-c4ccc(-c5cnn(C)c5)cc4)c23)cn1` [Compound P-0428, 4-((1-methyl-1H-pyrazol-4-yl)ethynyl)-3-(4-(1-methyl-1H-pyrazol-4-yl)phenyl)pyrazolo[1,5-a]pyridine], the IC50 was 100 to 1000 nM.

By IC50 is commonly meant the concentration that gives 50% inhibition. A low value points to greater potency in that assay.
